Results from a melting point compilation (Tetko et al.; mined from patent text by program, amines drawn as free bases though some values may be those of a salt).

| Compound | melting point |
| --- | --- |
| C=C(COc1ccc(C(=O)CCC(=O)O)cc1)COc1ccc(C(C)=O)c(O)c1CCC | 136 to 137 °C |
| Cc1cc2c(-c3ccccc3)c(CCNC(=O)OCc3ccccc3)n(C)c(=O)c2cc1C | 227 to 228 °C |
| FC(F)(F)c1ccc(-c2ncc(Br)cn2)cc1 | 167 °C |
| CC1(C)OC(=O)[C@H](CC(=O)O)O1 | 108 to 110 °C |
| COc1ccc2nc(C(=O)Nc3nnn(Cc4ccc(Cl)c(Cl)c4)c3C)sc2c1 | 176 °C |
| O=C(OC1CCc2c(c3ccccc3n2Cc2ccc(Cl)cc2)C1)c1ccccc1 (stereo unspecified) | 150 to 152 °C |
| Cc1nc2n(n1)C(N)(c1ccccc1)c1cc(Cl)ccc1-2 (stereo unspecified) | 173 to 175 °C |
| COCc1nnc(-c2cccnc2)n1-c1c(C)c(Cl)cc2nc(OC)c(OC)nc12 | 166 to 168 °C |
| O=C(c1ccccc1[N+](=O)[O-])N1CCCc2ccccc21 | 155 °C |
| O=C1CCC(c2ccc(N=C3NCCN3)cc2)=NN1 | 235 to 236 °C |
| Cc1c(-c2ccncc2)[nH]c(-c2ccncc2)c1C(=O)OC(C)(C)C | 265 to 267 °C |
| Cc1ccc(-c2c(O)nc(S)nc2O)cc1 | 290 to 292 °C |
| CC1(C)CC(=C(c2ccc(O)cc2)c2ccc(I)cc2)CC(C)(C)C1 | 148 to 149 °C |
| Cc1cccc(C(N)=O)c1Nc1nc(Nc2ccc3c(c2)N(C(C)C)C(=O)CCC3)ncc1Cl | 140 to 160 °C |
| Cc1ccc(NC(=O)C(CC2CCCC2)c2ccc(S(C)(=O)=O)cc2)nc1 (stereo unspecified) | 82 to 85 °C |
| CCSc1cc(C)nc(SCC)c1NC(=O)CN1CCN(CCSc2nc3cccc([N+](=O)[O-])c3o2)CC1 | 50 to 52 °C |
| NC1=Nc2ccc(I)cc2C(c2ccccn2)=NC1 | 228 to 229 °C |
| CCC1(c2ccc(Cl)cc2)OCc2c1cnc(C)c2O (stereo unspecified) | 215 °C |
| CCCCc1oc2ccccc2c1C(=O)NCc1ccc2c(Br)c(OCC#N)ccc2c1 | 154 to 157 °C |
| CC1(C)COC(Cc2ccc3c(c2)C(=O)c2ccccc2CO3)=N1 | 101 to 104 °C |
| COc1cc(OC)cc(C(Cc2ccc(OC)c(OC)c2)=NNS(=O)(=O)c2ccc(C)cc2)c1 | 132 to 133 °C |
| CC(Oc1ccc(Oc2nc3ccc(Cl)cc3o2)cc1)C(=O)OC[Si](C)(C)C (stereo unspecified) | 68 °C |
| Cc1nc2c(C#N)cnn2c2c1CCN2C(C)(C)C | 220 to 224 °C |
| COC(=O)C(Cc1ccc(OCCc2nc(-c3ccccc3)oc2C)cc1)C(=O)O (stereo unspecified) | 126 to 127 °C |
| O=Cc1ccc(-c2nc3ccccn3n2)cc1 | 246 to 247 °C |
| COc1ccc(S(=O)(=O)N(C)C)c(S(N)(=O)=O)c1 | 106 to 109 °C |

| Compound | melting point |
| --- | --- |
| NCCC(O)(c1ccc(Br)cc1)c1cccnc1 (stereo unspecified) | 95 to 115 °C |
| C=C1CCn2c(CCc3ccccc3)nc3cccc1c32 | 81 to 82.2 °C |
| CCOC(=O)c1c(NC=CC(=O)C(C)C)sc(-c2ccccc2)c1C | 104 to 108 °C |
| Cc1cc(C(O)=S)cc(N)c1C(=O)c1ccccc1 | 158 to 159 °C |
| CC(C)(C)ONC(=O)n1cc(C(=O)C2CSC(c3cccnc3)N2)c2ccccc21 (stereo unspecified) | 101 to 103 °C |
| CCCCCCOc1ccc2c(c1CCC)OC(CCC(=O)O)(CCC(=O)O)CC2=O | 164 to 165 °C |
| OC(CN1CCNC1=S)c1ccccn1 (stereo unspecified) | 120 °C |
| Cc1c(N2CCN(Cc3ccccc3)C(C)(C)C2)c(F)cc2c(=O)c(C(=O)O)cn(C3CC3)c12 | 170 to 171 °C |
| CNC(=O)C(c1ccccc1F)N(C(=O)CNC(=O)Nc1cccc(C)c1)c1cccc(OC)c1 (stereo unspecified) | 110 °C |
| CCCCCCN(CCCCCC)c1c(N[C@@H](Cc2cn(Cc3ccccc3)cn2)C(=O)O)c(=O)c1=O | 75 to 80 °C |
| CC#CCOc1ccc(S(=O)(=O)N(C)C(C(=O)NO)c2ccc(OCCCNS(C)(=O)=O)cc2)cc1 (stereo unspecified) | 65 to 70 °C |
| O=C(O)[C@H](Cc1ccc(C(F)(F)F)cc1)[C@@H](O)c1ccccc1 (racemic) | 138 to 139 °C |
| O=C(CCl)N1CCSC1CCc1ccccc1O (stereo unspecified) | 98 °C |
| O=C(c1ccc([N+](=O)[O-])[nH]1)C(Cl)(Cl)Cl | 160 to 163 °C |
| CC(CCCl)C(=O)Nc1cc(C(C)(C)C)ns1 (stereo unspecified) | 144 to 146 °C |
| CC(=O)N1CCC(=C2c3ccc(Cl)cc3CCc3cccnc32)CC1 | 155 to 157 °C |
| CCCn1nc2c(O)nc3ccccc3c2c1CC(C)(C)O | 294 to 296 °C |
| CC1CCC(C2=C(O)C(=O)c3ccccc3C2=O)CC1 (stereo unspecified) | 101 °C |
| O=S(=O)(c1ccccc1)c1ccc(Cl)cn1 | 154 to 155 °C |
| O=Cc1cc(Oc2c(Cl)cc(-n3ncc(=O)[nH]c3=O)cc2Cl)ccc1O | 146 to 150 °C |
| CCS(=O)(=O)N(C)c1c(Cl)c(Cl)cc2[nH]c(=O)c(=O)[nH]c12 | > 300 °C |
| CCOC(=O)C1=C(C)NC(COC(=O)CCN(C)Cc2ccccc2)=C(C(=O)OCC)C1c1ccccc1Cl (stereo unspecified) | 86 to 87 °C |
| Cc1cc2c(S(C)(=O)=O)nc(CCC(F)(F)F)nc2s1 | 60 to 61 °C |
| Cc1nc(-c2ccccc2)nc(NCC(=O)N(C)c2ccccc2)c1Br | 160 to 162 °C |
| COC(=O)COCc1cc(Br)ccc1C(=O)OC | 60 to 62 °C |
| CCN(CC)c1ccc(N2C[C@H](CNC(=O)c3ccc(Cl)s3)OC2=O)cc1 | 181 °C |

| Compound | melting point |
| --- | --- |
| CCc1cn(C2CC(O)C(CN=[N+]=[N-])O2)c(=O)nc1NC(=O)c1ccccc1 (stereo unspecified) | 125 to 126 °C |
| Nc1cc(Cl)cc(Cl)c1C(=O)NCc1ccccc1 | 90 to 96 °C |
| Cc1nc2ccc(N)cn2c(=O)c1CCCl | 185 °C |
| CC(C)Cc1ccccc1Sc1c(O)cc(-c2ccccc2)oc1=O | 195 °C |
| O=C(NC(Cc1ccc(OCc2ccccc2)cc1)C(=O)O)c1cn2cc(-c3ccncc3)ccc2n1 (stereo unspecified) | 268 °C |
| CCOC(=O)ONC(=N)c1cc(C(C)(C)C)c(OCOCCOC)c(C(C)(C)C)c1 | 115 to 117 °C |
| CC(COc1ccc(CC2SC(=O)NC2=O)cc1)N1CC(COc2ccccc2)OC1=O (stereo unspecified) | 54 to 56 °C |
| Oc1ccc(-c2nc3cc(Cl)c(O)cc3o2)cc1 | 254 to 256 °C |
| CC(=O)OC1CSC(Oc2cccc(-c3ccncc3Cl)c2)C(OC(C)=O)C1OC(C)=O (stereo unspecified) | 169 to 171 °C |
| CC(C)C[C@H](NC(=O)N1CCCCCC1)C(=O)N[C@](C)(Cc1ccc(OCc2ccccc2)cc1)C(=O)OC(C)(C)C | 46 to 49 °C |
| O=c1c(CO)cnc2c3ccccc3ccn12 | 198 °C |
| CC1=C(C(=O)OCCN(C)Cc2ccccc2)C(c2cccc3c(=O)c(C)c(-c4ccccc4)oc23)C(C(=O)OC(C)C)=C(C)N1 (stereo unspecified) | 170 to 172 °C |
| CCCCNC(=O)Oc1ccc(Oc2ccc(C)cc2)cc1 | 64 to 66 °C |
| CC1(C)CC(=O)c2c(O)cc(O)cc2C1 | 115 to 116 °C |
| Cc1[nH]c(=O)ccc1-c1cccc(O)c1 | 285 to 288 °C |
| C=CCc1cc(C)c2c(c1O)C(=O)CC2 | 41 to 45 °C |
| COc1ccc(CNC(=O)c2cc3c(=O)n(CC#N)c(=O)n(C)c3s2)cc1 | 180 to 183 °C |
| O=c1[nH]c2ccccc2c(O)c1-c1csc(-c2ccncc2)n1 | > 250 °C |
| NS(=O)(=O)c1cc2c(cc1Cl)C(O)N(C1CCN(Cc3cccc(C(F)(F)F)c3)CC1)C2=O (stereo unspecified) | 204 to 205 °C |
| CCOC(=O)CC(=O)Cn1nc(CC)c(Oc2cc(Cl)cc(Cl)c2)c1CC | 82 to 84 °C |
| CCCC(=O)NCCc1c[nH]c2ccc(OCc3ccccc3)cc12 | 112 to 114 °C |
| CC(=O)Nc1cccc(-c2ccccc2S(=O)(=O)Nc2onc(C)c2C)c1 | 168 to 171 °C |
| CS(=O)(=O)c1cccc(NC(=O)c2cnn3c(C(F)(F)F)cc(-c4ccc(C(F)(F)F)c(OCC(F)(F)F)c4)nc23)c1 | 227 °C |
| CC(C)c1nn(-c2ccc(C(F)(F)F)cn2)cc1CCCOc1c(F)cccc1CC(=O)O | 140 to 141 °C |
| CCNc1nc(NC)cc(NS(=O)(=O)c2ccc(N)cc2)n1 | 261 to 263 °C |
| Cc1c(C(=O)NCc2ccccc2)nc(-n2ccc(OCc3ccccc3)cc2=O)n1C | 190 to 191 °C |

| Compound | melting point |
| --- | --- |
| CC(=O)OCCn1nc(-c2cc(C(C)(C)C)c(O)c(C(C)(C)C)c2)c2c(C)cc(C)nc21 | 110 to 111 °C |
| c1ccc2c(c1)CCn1ccnc1C2=C1CCNCC1 | 287 to 289 °C |
| CCOC(=O)c1cnn2c1c(SC)nc1ccccc12 | 97 to 98 °C |
| CCOCCCn1cnc(-c2ccc(F)cc2)c1-c1ccncc1 | 85 to 86 °C |
| N#CC(NC(=O)c1ccnc(Cl)c1)c1cccs1 (stereo unspecified) | 123 to 125 °C |
| CC(O)Cn1nc2c3c(cc([N+](=O)[O-])cc31)CCC2 (stereo unspecified) | 147 to 148 °C |
| O=C1COCc2cc(Br)ccc21 | 144 to 146 °C |
| COc1ccc2c(c1)NC(=O)C(CCO)O2 (stereo unspecified) | 111 to 113 °C |
| COc1cccc2cc(C(=O)Nc3ccc(-n4nc(C(F)(F)F)cc4C(F)(F)F)cc3)oc12 | 109 to 110 °C |
| CCc1nc(C)c(/C=C(\NC(=O)c2ccc(C(=O)NCc3cccc(O)c3)cc2Cl)C(=O)OC)s1 | > 200 °C |
| C#Cc1cc2c(cc1Cl)C=C(C(=O)O)C(C(F)(F)F)O2 (stereo unspecified) | > 300 °C |
| COCc1c(C(=O)OC(C)C)ncc2[nH]c3cccc(-c4cccs4)c3c12 | 160 to 162 °C |
| CCCC(c1ccc(C(=O)O)cc1OCc1ccc(Br)cc1)n1ccnc1 (stereo unspecified) | 155 to 158 °C |
| COc1ccc(Cc2ccc(CO)cc2)cc1 | 68 to 72 °C |
| COc1ccc(CCN2CCC(C(=O)c3csc4ccccc34)CC2)cc1 | 114 to 116 °C |
| C=C(C)Cn1c(S)nc2c(cnn2C)c1=O | 158 to 160 °C |
| Cc1nsc2nc3ccccc3n12 | 192 to 193 °C |
| CCOC(=O)[C@H](Cc1ccc(-c2c(OC)cc(COS(C)(=O)=O)cc2OC)cc1)NC(=O)c1c(F)cccc1F | 125 to 126 °C |
| O=C(O)C1(c2ccccc2)CCC2(CC1)OCCO2 | 134 to 139 °C |
| N#Cc1cc2cccnc2nc1O | 300 °C |
| COC(=O)Cc1c(C)n(O)c(=O)c2ccccc12 | 185 to 190 °C |
| CCNC(=O)c1ccccc1OC(C)(C)C | 34.5 to 36 °C |
| Cc1cc(Br)nc(Br)c1 | 77 °C |
